# Values of other authors as cited in patent US9114107B2, “Compositions for inhibiting virus entry and promoting virolysis, and methods thereof” (priority 2010, dated 2015).
# System: virus challenge
# Settings: cited from earlier work
smiles,measurement,setting,value
"COc1ccnc2[nH]cc(C(=O)C(=O)N3CCN(C(=O)c4ccccc4)C[C@H]3C)c12 [BMS-806, (R)-1-(4-benzoyl-2-methylpiperazin-1-yl)-2-(4-methoxy-1H-pyrrolo[2,3-b]pyridin-3-yl)ethane-1,2-dione]",local irritation or inflammation of macaque vagina,biopsy after multiple applications,No local irritation or inflammation was observed
same,animals protected,macaques challenged with virus 2-6 hours after application,3 of 5
